According to US9365549B2, “Hepatitis C virus inhibitors” (THERAVANCE BIOPHARMA R&D IP, LLC, priority 2012, dated 2016):

Assays:
[1] = test system: HCV genotype 1a replicon cell line; experiment: HCV Genotype 1a Replicon Assay; assay type: cell-based; details: Hepatitis C virus, Huh7.5 cell background, NS3-specific protease activity in lysates, 48 or 72 hours, read-out: pEC50 Genotype 1a (converted)
Protocol: Assay 2: HCV Genotype 1a Replicon Assay
The HCV genotype 1a replicon cell line was obtained from Apath LLC (APC89; Huh7.5 cell background). This subgenomic replicon contains the N-terminus of the HCV core protein fused to the neomycin-resistance selectable marker. The EMCV IRES lies downstream and drives expression of the non-structural proteins NS3-NS5B. Compound potencies were determined using the NS3-specific protease activity in lysates as a measurement of compound inhibition of replicon levels.
(§1) Cells were grown at 37° C. in a 5% CO2 humidified incubator in DMEM (Invitrogen) with 10% FBS (HyClone), 1×NEAA (Invitrogen), 1× Pen-Strep (Invitrogen), and 850 μg/mL G418 (Invitrogen). On day 1 of the assay, cells were plated at 15,000 cells/well in black 96-well tissue culture plates (Costar) in 200 μL media lacking G418. […] Compounds were initially diluted in DMSO and then diluted another 200× in media to bring the final DMSO concentration down to 0.5%. The cells were incubated with test compounds for 48 or 72 hours. At the end of the incubation period, media and compound were removed from the plates.
To determine the NS3-specific protease activity in lysates, the cells were lysed at room temperature in 50 μL/well of 50 mM Hepes pH 7.5, 150 mM NaCl, 15% Glycerol, 0.15% Triton X-100, 10 mM DTT for 20 minutes with shaking. 50 μL of an NS3/4a protease-specific FRET substrate (Anaspec RET S1 Cat#22991) was then added to the wells at a final concentration of 15 μM. The plates were incubated at 37° C. for 20 minutes, which corresponds to a timepoint at which the protease activity is still in the linear phase. Protease activity was determined by measuring fluorescence (Excitation: 340 nm; Emission: 509 nm).
To analyze the data, the fluorescence was plotted vs. the compound concentration, and EC50 values were determined from a 4-parameter robust fit model using GraphPad Prism software.

[2] = test system: HCV genotype 1b replicon cell line; experiment: HCV Genotype 1b Replicon Assay; assay type: cell-based; details: Hepatitis C virus, Huh-7, Huh7 cell background, luciferase activity readout, 48 hours
Excerpt: Assay 1: HCV Genotype 1b Replicon Assay
The HCV genotype 1b replicon cell line was obtained from Apath LLC (Brooklyn, N.Y.) (APC144; Huh7 cell background). This subgenomic replicon contains the N-terminus of the HCV core protein fused to the neomycin-resistance selectable marker. The EMCV IRES lies downstream and drives expression of humanized Renilla luciferase fused to the non-structural proteins NS3-NS5B. This cell line was used to determine compound potency using the luciferase activity readout as a measurement of compound inhibition of replicon levels.
as §1, with “500” for “850”, “10,000” for “15,000”, “white” for “black”, “48” for “48 or 72”, “plates and the luciferase activity was determined using Promega Renilla-Glo reagents.” for “plates.”
To analyze the data, the luciferase activity was plotted vs. the compound concentration, and EC50 values were determined from a 4-parameter robust fit model with the GraphPad Prism software package (GraphPad Software, Inc., San Diego, Calif.). Results are expressed as the negative decadic logarithm of the EC50 value, pEC50.

| Structure (SMILES) | EC50 [1] [nM] | EC50 [2] [nM] |
| --- | --- | --- |
| COC(=O)N[C@H](C(=O)N1C[C@@H](C)C[C@H]1c1nc2c(ccc3cc(-c4cc(F)c(NC(=O)c5ccc(N6CCN(C(=O)C(C)(C)CO)C[C@H]6C)nc5)cc4OC(F)(F)F)ccc32)[nH]1)C1CCOCC1 [Example 5-3] | < 0.1 | < 0.1 |
| COC(=O)N[C@H](C(=O)N1C[C@@H](C)C[C@H]1c1nc2c(ccc3cc(-c4ccc(C(=O)Nc5ccc(N6CCN(C(=O)C(C)(C)C)C[C@H]6C)nc5)cc4OC(F)(F)F)ccc32)[nH]1)C(C)C [Example 13, ((S)-1-{(2S,4S)-2-[7-(4-{6-[(R)-4-(2,2-Dimethyl-propionyl)-2-methyl-piperazin-1-yl]-pyridin-3-ylcarbamoyl}-2-trifluoromethoxy-phenyl)-3H-naphth[1,2-d]imidazol-2-yl]-4-methyl-pyrrolidine-1-carbonyl}-2-methyl-propyl)-carbamic acid methyl ester] | < 0.1 | < 0.1 |
| COC(=O)N[C@H](C(=O)N1C[Si](C)(C)C[C@H]1c1nc(-c2ccc(-c3cc(Cl)c(NC(=O)c4ccc(N5CCN(C(=O)[C@H]6CC6(C)C)C[C@H]5C)nc4)cc3OC(F)(F)F)cc2)c[nH]1)C(C)C [Example 5, ((S)-1-{(R)-5-[4-(5′-Chloro-4′-{[6-((R)-4-(S)-2,2-dimethylcyclopropanecarbonyl-2-methyl-piperazin-1-yl)-pyridine-3-carbonyl]-amino}-2′-trifluoromethoxy-biphenyl-4-yl)-1H-imidazol-2-yl]-3,3-dimethyl-[1,3]azasilolidine-1-carbonyl}-2-methyl-propyl)-carbamic acid methyl ester] | < 0.1 | < 0.1 |
| COC(=O)N[C@H](C(=O)N1C[C@@H](C)C[C@H]1c1nc2c(ccc3cc(-c4cc(Cl)c(NC(=O)c5ccc(N6CCN(C(=O)C7CC7)C[C@H]6C)nc5)cc4OC(F)(F)F)ccc32)[nH]1)C(C)C [Example 9, ((S)-1-{(2S,4S)-2-[7-(5-Chloro-4-{[6-((R)-4-cyclopropanecarbonyl-2-methyl-piperazin-1-yl)-pyridine-3-carbonyl]-amino}-2-trifluoromethoxy-phenyl)-3H-naphtho[1,2-d]imidazol-2-yl]-4-methyl-pyrrolidine-1-carbonyl}-2-methyl-propyl)-carbamic acid methyl ester] | < 0.1 | < 0.1 |
| COC(=O)N[C@H](C(=O)N1C[C@@H](C)C[C@H]1c1nc2c(ccc3cc(-c4cc(Cl)c(NC(=O)c5ccc(N6CCN(C(=O)C(C)(C)C)C[C@H]6C)nc5)cc4OC(F)(F)F)ccc32)[nH]1)C(C)C [Example 8, [(S)-1-((2S,4S)-2-{7-[5-Chloro-4-({6-[(R)-4-(2,2-dimethyl-propionyl)-2-methyl-piperazin-1-yl]-pyridine-3-carbonyl}-amino)-2-trifluoromethoxy-phenyl]-3H-naphtho[1,2-d]imidazol-2-yl}-4-methyl-pyrrolidine-1-carbonyl)-2-methyl-propyl]-carbamic acid methyl ester] | < 0.1 | < 0.1 |
| COC(=O)N[C@H](C(=O)N1C[C@@H](C)C[C@H]1c1nc2c(ccc3cc(-c4cc(F)c(NC(=O)c5ccc(N6CCN(C(=O)C(C)(C)C)C[C@H]6C)nc5)cc4OC(F)(F)F)ccc32)[nH]1)C1CCOCC1 [Example 5-2] | < 0.1 | < 0.1 |
| COC(=O)N[C@H](C(=O)N1[C@@H]2C[C@@H]2CC[C@H]1c1nc(-c2ccc(-c3cc(Cl)c(NC(=O)c4ccc(N5CCN(C(=O)C(C)(C)C)C[C@H]5C)nc4)cc3OC(F)(F)F)cc2)c[nH]1)C(C)C [Example 5-10] | < 0.1 | < 0.1 |
| COC(=O)N[C@H](C(=O)N1C[C@@H](C)C[C@H]1c1nc2c(ccc3cc(-c4cc(Cl)c(NC(=O)c5ccc(N6CCN(C(=O)C(C)(C)CO)C[C@H]6C)nc5)cc4OC(F)(F)F)ccc32)[nH]1)C1CCOCC1 [Example 15, [(S)-2-((2S,4S)-2-{7-[4-({6-[(R)-4-(3-Hydroxy-2,2-dimethyl-propionyl)-2-methyl-piperazin-1-yl]-pyridine-3-carbonyl}-amino)-5-chloro-2-trifluoromethoxy-phenyl]-3H-naphtho[1,2-d]imidazol-2-yl}-4-methyl-pyrrolidin-1-yl)-2-oxo-1-(tetrahydropyran-4-yl)-ethyl]-carbamic acid methyl ester] | < 0.1 | < 0.1 |
| COC(=O)N[C@H](C(=O)N1C[C@@H](C)C[C@H]1c1nc2c(ccc3cc(-c4cc(Cl)c(C(=O)Nc5ccc(N6CCN(C(=O)C(C)(C)C)C[C@H]6C)nc5)cc4OC(F)(F)F)ccc32)[nH]1)C1CCOCC1 [Example 5-6] | < 0.1 | < 0.1 |
| COC(=O)N[C@H](C(=O)N1C[Si](C)(C)C[C@H]1c1nc(-c2ccc(-c3ccc(NC(=O)c4ccc(N5CCN(C(=O)C(C)(C)C)C[C@H]5C)nc4)cc3OC(F)(F)F)cc2)c[nH]1)C(C)C [Example 7, [(S)-1-((R)-5-{4-[4′-({6-[(R)-4-(2,2-dimethyl-propionyl)-2-methyl-piperazin-1-yl]-pyridine-3-carbonyl}-amino)-2′-trifluoromethoxy-biphenyl-4-yl]-1H-imidazol-2-yl}-3,3-dimethyl-[1,3]azasilolidine-1-carbonyl)-2-methyl-propyl]-carbamic acid methyl ester] | 0.1 to 1 | < 0.1 |
| COC(=O)N[C@H](C(=O)N1CC(C2CC2)=C[C@H]1c1nc(-c2ccc(-c3cc(Cl)c(NC(=O)c4ccc(N5CCN(C(=O)[C@H]6CC6(C)C)C[C@H]5C)nc4)cc3OC(F)(F)F)cc2)c[nH]1)C(C)C [Example 4, ((S)-1-{(S)-2-[4-(5′-Chloro-4′-{[6-((R)-4-(S)-2,2-dimethylcyclopropanecarbonyl-2-methyl-piperazin-1-yl)-pyridine-3-carbonyl]-amino}-2′-trifluoromethoxy-biphenyl-4-yl)-1H-imidazol-2-yl]-4-cyclopropyl-2,5-dihydro-pyrrole-1-carbonyl}-2-methyl-propyl)-carbamic acid methyl ester] | < 0.1 | < 0.1 |
| COC(=O)N[C@H](C(=O)N1C[C@@H](C)C[C@H]1c1nc2c(ccc3cc(-c4cc(Cl)c(NC(=O)c5ccc(N6CCN(C(=O)[C@H]7CC7(C)C)C[C@H]6C)nc5)cc4OC(F)(F)F)ccc32)[nH]1)C(C)C [Example 10, [(S)-1-((2S,4S)-2-{7-[5-Chloro-4-({6-[(R)-4-((S)-2,2-dimethylcyclopropanecarbonyl)-2-methyl-piperazin-1-yl]-pyridine-3-carbonyl}-amino)-2-trifluoromethoxy-phenyl]-3H-naphtho[1,2-d]imidazol-2-yl}-4-methyl-pyrrolidine-1-carbonyl)-2-methyl-propyl]-carbamic acid methyl ester] | < 0.1 | < 0.1 |
| COC(=O)N[C@H](C(=O)N1C[C@@H](C)C[C@H]1c1nc2c(ccc3cc(-c4cc(Cl)c(C(=O)Nc5ccc(N6CCN(C(=O)C(C)(C)CO)C[C@H]6C)nc5)cc4OC(F)(F)F)ccc32)[nH]1)C1CCOCC1 [Example 5-7] | < 0.1 | < 0.1 |
| COC(=O)N[C@H](C(=O)N1C[C@@H](C)C[C@H]1c1nc2c(ccc3cc(-c4cc(Cl)c(NC(=O)c5ccc(N6CCN(C(=O)C(C)(C)C)C[C@H]6C)nc5)cc4OC(F)(F)F)ccc32)[nH]1)C1CCOCC1 [Example 14, [(S)-2-((2S,4S)-2-{7-[4-({6-[(R)-4-(2,2-Dimethyl-propionyl)-2-methyl-piperazin-1-yl]-pyridine-3-carbonyl}-amino)-5-chloro-2-trifluoromethoxy-phenyl]-3H-naphtho[1,2-d]imidazol-2-yl}-4-methyl-pyrrolidin-1-yl)-2-oxo-1-(tetrahydropyran-4-yl)-ethyl]-carbamic acid methyl ester] | < 0.1 | < 0.1 |
